Measured values as given in PMC11487190 (2024).

Legend:
[1] = tested on: semi-synthetic tbpA aptamer (residues 1-89 + 3' anchoring sequence) (RNA, riboswitch, azide-modified U at 14 (clicked to Cy5)) GUUCUCAACGGGGUGCCACGCGUACGCGUGCGCUGAGAAAAUACCCGUCGAACCUGAUCCGGAUAACGCCGGCGAAGGGAUUUGAGGCUCCCCGGCCCCCCGGCC; assay: smFRET (TIRF); details: 20 mM MgCl2, 20 mM NaCl; 1 mM TPP; folded state 14% to 48%; Tris-HCl buffer, pH 7.5
[2] = tested on: 30S ribosomal subunit; assay: toeprint (primer extension); details: tRNA-fMet, with TPP; Toeprint buffer, salt, pH and temperature not given in the material; scale: fold decrease of toeprint efficiency vs no TPP

| binding [1] | Molecule | binding signal [2] |
| --- | --- | --- |
| yes | Cc1ncc(C[n+]2csc(CCOP(=O)(O)OP(=O)(O)O)c2C)c(N)n1 | – |
| – | tbpA riboswitch nascent transcript (toeprint) | 2.2 |
